Results from article PMC5429603, “Discovery and characterization of verinurad, a potent and specific inhibitor of URAT1 for the treatment of hyperuricemia and gout” (Scientific Reports, 2017).

Assays:
human URAT1 h-V26T = biological target: T1, human URAT1 h-V26T (Homo sapiens, UniProt Q96S37, V26T); experiment: URAT1 activity assay, h-V26T; format: cell-based; settings: TM1 point mutant, read-out: Verinurad affinity (IC50)
T1 construct: expressed in transfected cells; host or cells: HEK-293T
Text: (§1) Human URAT1 (GenBank BC053348.1, Homo sapiens SLC22A12), rat URAT1 (NCBI NM_001034943.1, Rattus norvegicus Slc22a12) and human OAT4 (NCBI NM_018484.2, Homo sapiens SLC22A11) genes were purchased from Origene Technologies, Inc. and subcloned into pCMV6/neo using NotI. Where indicated, controls transfections used pCMV6/neo. Mutants were produced by site-directed mutagenesis using the QuikChange Lightning Multi Site-Directed Mutagenesis Kit (Agilent Technologies). […] Mutagenic primer sequences are provided in ref. [15] and mutagenic primer sequences for previously unreported mutants shown in Supplementary Table 1. All constructs used in this study were untagged. Human OAT1 was purchased from Fisher Scientific (catalog # MHS1010–7508183 in pSPORT6, NCBI NM_153276.2, Homo sapiens SLC22A6).
(§2) HEK-293T cells were maintained in DMEM/high glucose/L-glutamine/HEPES supplemented with 1 mM sodium pyruvate (Life Technologies) and 10% FBS (PAA Laboratories) at 37 °C in 5% CO2. […]
(§3) URAT1 and OAT4 activity assays were performed in assay buffer consisting of 25 mM MES pH 5.5 (from a 1 M MES solution [Sigma] adjusted to pH 5.5 with sodium hydroxide), 125 mM sodium gluconate, 4.8 mM potassium gluconate, 1.2 mM monobasic potassium phosphate, 1.2 mM magnesium sulfate, 1.3 mM calcium gluconate and 5.6 mM glucose. […] Each treatment was measured in triplicate.

human URAT1 h-L31V = biological target: T2, human URAT1 h-L31V (Homo sapiens, UniProt Q96S37, L31V); experiment: URAT1 activity assay, h-L31V; format: cell-based; settings: TM1 point mutant, read-out: Verinurad affinity (IC50)
T2 construct: expressed in transfected cells; host or cells: HEK-293T
Text: as §1, §2, §3

human URAT1 h-C32T = biological target: T3, human URAT1 h-C32T (Homo sapiens, UniProt Q96S37, C32T); experiment: URAT1 activity assay, h-C32T; format: cell-based
T3 construct: expressed in transfected cells; host or cells: HEK-293T
Text: as §1, §2, §3

rat URAT1-Y365F = biological target: T4, rat URAT1-Y365F (Rattus norvegicus, UniProt Q3ZAV1, Y365F); experiment: URAT1 activity assay, r-Y365F; format: cell-based
T4 construct: expressed in transfected cells; host or cells: HEK-293T
T4 sequence (Q3ZAV1 1-553 Y365F): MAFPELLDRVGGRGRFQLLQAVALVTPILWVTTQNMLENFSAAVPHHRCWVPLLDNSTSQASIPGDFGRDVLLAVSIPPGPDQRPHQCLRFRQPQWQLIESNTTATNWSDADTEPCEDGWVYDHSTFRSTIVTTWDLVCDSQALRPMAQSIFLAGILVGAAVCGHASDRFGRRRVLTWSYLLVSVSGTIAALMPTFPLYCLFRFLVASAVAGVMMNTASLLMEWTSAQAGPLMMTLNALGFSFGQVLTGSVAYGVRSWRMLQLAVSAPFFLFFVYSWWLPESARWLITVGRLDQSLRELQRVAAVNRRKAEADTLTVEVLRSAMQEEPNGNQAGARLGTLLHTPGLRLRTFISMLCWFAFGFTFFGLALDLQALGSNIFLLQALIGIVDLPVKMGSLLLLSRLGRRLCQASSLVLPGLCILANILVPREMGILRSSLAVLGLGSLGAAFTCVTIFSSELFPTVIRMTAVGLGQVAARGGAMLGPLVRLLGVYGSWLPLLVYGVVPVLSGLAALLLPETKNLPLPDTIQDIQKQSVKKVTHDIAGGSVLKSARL
Text: as §1, §2, §3

rat URAT1 r-M481I = biological target: T5, rat URAT1 r-M481I (Rattus norvegicus, UniProt Q3ZAV1, M481I); experiment: URAT1 activity assay, r-M481I; format: cell-based
T5 construct: expressed in transfected cells; host or cells: HEK-293T
Text: as §1, §2, §3

rat URAT1 r-A21T = rat URAT1 r-A21T (Rattus norvegicus, UniProt Q3ZAV1, A21T); experiment: cell-based
Text: as §1
(§4) HEK-293T cells were maintained in DMEM/high glucose/L-glutamine/HEPES supplemented with 1 mM sodium pyruvate (Life Technologies) and 10% FBS (PAA Laboratories) at 37 °C in 5% CO2. To express URAT1, OAT4 or OAT1, plasmids were reverse transfected into HEK-293T cells. DNA (10 µg) was mixed with 30 µl of DreamFect Gold (Boca Scientific) in 2 ml OptiMem (Life Technologies). After 20 minutes, 18 ml of media containing 2 × 10^7 cells in suspension was added and mixed, and 200 µl per well were plated onto white clear-bottomed poly-D-lysine coated 96-well plates (BD Biosciences). The cells were assayed the following day.
(§5) URAT1 and OAT4 activity assays were performed in assay buffer consisting of 25 mM MES pH 5.5 (from a 1 M MES solution [Sigma] adjusted to pH 5.5 with sodium hydroxide), 125 mM sodium gluconate, 4.8 mM potassium gluconate, 1.2 mM monobasic potassium phosphate, 1.2 mM magnesium sulfate, 1.3 mM calcium gluconate and 5.6 mM glucose. URAT1 inhibitors were serially diluted into assay buffer and added to the cells for 5 minutes prior to addition of substrate. URAT1-expressing cells were incubated with 100 µM ^14C-uric acid for 10 minutes and OAT4-expressing cells were incubated with 20 µM carboxyfluorescein (Life Technologies, Inc.) for 5 minutes. Cells were then washed three times in 25 mM MES pH 5.5/125 mM sodium gluconate, and solubilized in Ultima Gold (Perkin Elmer) prior to liquid scintillation counting. Each treatment was measured in triplicate.

rat URAT1 r-L18V = rat URAT1 r-L18V (Rattus norvegicus, UniProt Q3ZAV1, L18V); experiment: cell-based
Text: as §1, §4, §5

rat URAT1 r-L29M = rat URAT1 r-L29M (Rattus norvegicus, UniProt Q3ZAV1, L29M); experiment: cell-based
Text: as §1, §4, §5

rat URAT1 r-N35S/M481I = rat URAT1 r-N35S/M481I (Rattus norvegicus, UniProt Q3ZAV1, M481I/N35S); experiment: cell-based
Text: as §1, §4, §5

rat URAT1 r-N35S/Y365F = rat URAT1 r-N35S/Y365F (Rattus norvegicus, UniProt Q3ZAV1, N35S/Y365F); experiment: cell-based
Text: as §1, §4, §5

rat URAT1 r-P27S = rat URAT1 r-P27S (Rattus norvegicus, UniProt Q3ZAV1, P27S); experiment: cell-based
Text: as §1, §4, §5

rat URAT1 r-T26V = rat URAT1 r-T26V (Rattus norvegicus, UniProt Q3ZAV1, T26V); experiment: cell-based
Text: as §1, §4, §5

rat URAT1 r-V22M = rat URAT1 r-V22M (Rattus norvegicus, UniProt Q3ZAV1, V22M); experiment: cell-based
Text: as §1, §4, §5

rat URAT1 r-V31L = rat URAT1 r-V31L (Rattus norvegicus, UniProt Q3ZAV1, V31L); experiment: cell-based
Text: as §1, §4, §5

rat URAT1 r-Y365F/M481I = rat URAT1 r-Y365F/M481I (Rattus norvegicus, UniProt Q3ZAV1, M481I/Y365F); experiment: cell-based
Text: as §1, §4, §5

human URAT1-F449Y = biological target: T6, human URAT1-F449Y (Homo sapiens, UniProt Q96S37, F449Y); experiment: URAT1 binding assay with 3H-verinurad, h-F449Y membranes
T6 construct: expressed in transfected cells; host or cells: HEK-293T
Procedure: The plates were then subjected to scintillation counting. All samples were assayed in triplicate.

healthy human volunteers = test system: healthy human volunteers; parameters: method as in PMID 28744099; settings: humans; cited from earlier work

T3 sequence (Q96S37 whole entry C32T): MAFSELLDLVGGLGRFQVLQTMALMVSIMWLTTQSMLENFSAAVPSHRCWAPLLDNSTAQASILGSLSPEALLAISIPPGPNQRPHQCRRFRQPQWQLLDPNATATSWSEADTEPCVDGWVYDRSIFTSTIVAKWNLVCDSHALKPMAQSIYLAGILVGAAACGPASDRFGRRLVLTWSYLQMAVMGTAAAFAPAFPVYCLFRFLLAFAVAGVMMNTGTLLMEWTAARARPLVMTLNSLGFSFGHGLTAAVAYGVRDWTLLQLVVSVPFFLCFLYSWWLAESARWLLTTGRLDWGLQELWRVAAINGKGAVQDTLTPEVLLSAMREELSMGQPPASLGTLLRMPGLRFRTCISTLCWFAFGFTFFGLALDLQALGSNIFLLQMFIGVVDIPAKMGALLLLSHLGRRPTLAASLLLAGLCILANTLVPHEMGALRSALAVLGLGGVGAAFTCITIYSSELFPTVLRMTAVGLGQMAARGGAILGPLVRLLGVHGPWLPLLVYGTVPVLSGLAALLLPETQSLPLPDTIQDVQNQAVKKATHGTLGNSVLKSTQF
T5 sequence (Q3ZAV1 whole entry M481I): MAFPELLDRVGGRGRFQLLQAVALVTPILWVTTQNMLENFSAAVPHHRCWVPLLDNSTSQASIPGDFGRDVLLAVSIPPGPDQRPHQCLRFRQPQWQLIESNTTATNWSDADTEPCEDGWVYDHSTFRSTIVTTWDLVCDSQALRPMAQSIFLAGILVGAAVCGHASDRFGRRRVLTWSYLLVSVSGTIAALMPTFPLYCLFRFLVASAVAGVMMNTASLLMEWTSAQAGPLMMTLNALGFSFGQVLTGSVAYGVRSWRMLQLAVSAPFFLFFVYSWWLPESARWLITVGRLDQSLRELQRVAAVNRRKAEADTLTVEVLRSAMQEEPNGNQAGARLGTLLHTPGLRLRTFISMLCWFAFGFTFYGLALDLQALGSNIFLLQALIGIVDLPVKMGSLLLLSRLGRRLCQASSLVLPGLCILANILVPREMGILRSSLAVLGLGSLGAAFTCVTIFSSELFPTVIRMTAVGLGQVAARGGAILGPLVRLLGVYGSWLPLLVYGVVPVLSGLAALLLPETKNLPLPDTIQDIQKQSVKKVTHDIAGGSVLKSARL
Chain of rat URAT1 r-P27S (Q3ZAV1 whole entry P27S): as the sequence (Q3ZAV1 whole entry M481I) above, with P27S, I481M counted along it
T6 sequence (Q96S37 whole entry F449Y): as the sequence (Q96S37 whole entry C32T) above, with T32C, F449Y counted along it
Chain of rat URAT1 r-L18V (Q3ZAV1 whole entry L18V): as the sequence (Q3ZAV1 whole entry M481I) above, with L18V, I481M counted along it
T2 sequence (Q96S37 whole entry L31V): as the sequence (Q96S37 whole entry C32T) above, with L31V, T32C counted along it
Chain of rat URAT1 r-V31L (Q3ZAV1 whole entry V31L): as the sequence (Q3ZAV1 whole entry M481I) above, with V31L, I481M counted along it
Chain of rat URAT1 r-T26V (Q3ZAV1 whole entry T26V): as the sequence (Q3ZAV1 whole entry M481I) above, with T26V, I481M counted along it
T1 sequence (Q96S37 whole entry V26T): as the sequence (Q96S37 whole entry C32T) above, with V26T, T32C counted along it
Chain of rat URAT1 r-N35S/Y365F (Q3ZAV1 whole entry N35S/Y365F): as the sequence (Q3ZAV1 whole entry M481I) above, with N35S, Y365F, I481M counted along it
Chain of rat URAT1 r-L29M (Q3ZAV1 whole entry L29M): as the sequence (Q3ZAV1 whole entry M481I) above, with L29M, I481M counted along it
Chain of rat URAT1 r-Y365F/M481I (Q3ZAV1 whole entry Y365F/M481I): as the sequence (Q3ZAV1 whole entry M481I) above, with Y365F counted along it
Chain of rat URAT1 r-N35S/M481I (Q3ZAV1 whole entry N35S/M481I): as the sequence (Q3ZAV1 whole entry M481I) above, with N35S counted along it
Chain of rat URAT1 r-A21T (Q3ZAV1 whole entry A21T): as the sequence (Q3ZAV1 whole entry M481I) above, with A21T, I481M counted along it
Chain of rat URAT1 r-V22M (Q3ZAV1 whole entry V22M): as the sequence (Q3ZAV1 whole entry M481I) above, with V22M, I481M counted along it

IC50 (human URAT1 h-V26T): 0.014 ± 0.0015 µM | IC50 (human URAT1 h-L31V): 0.031 ± 0.01 µM | fold reduced affinity relative to human URAT1 (human URAT1 h-C32T): 4 fold | IC50 (human URAT1 h-C32T; TM1 point mutant, read-out: Verinurad affinity (IC50)): 0.095 ± 0.026 µM | fold higher affinity compared to rat URAT1 (rat URAT1-Y365F): 14 fold | IC50 (rat URAT1-Y365F; TM7 point mutant, read-out: Verinurad affinity (IC50)): 2.9 ± 1.3 µM | fold increase in affinity compared to rat URAT1 (rat URAT1 r-M481I): 4 fold | IC50 (rat URAT1 r-M481I; TM11 point mutant, read-out: Verinurad affinity (IC50)): 11 ± 3.1 µM | IC50 (rat URAT1 r-A21T): 36 ± 5.2 µM | IC50 (rat URAT1 r-L18V): 40 ± 6.1 µM | IC50 (rat URAT1 r-L29M): 29 ± 3.3 µM | IC50 (rat URAT1 r-N35S/M481I): 4.43 µM | IC50 (rat URAT1 r-N35S/Y365F): 0.47 µM | IC50 (rat URAT1 r-P27S): 27 ± 3.4 µM | fold increase in affinity (rat URAT1 r-P27S; printed r-S27P, vs rat URAT1): 1.5 fold | IC50 (rat URAT1 r-T26V): 39 ± 5.5 µM | IC50 (rat URAT1 r-V22M): 43 ± 2.5 µM | IC50 (rat URAT1 r-V31L): 29 ± 3.2 µM | IC50 (rat URAT1 r-Y365F/M481I): 0.59 µM | IC50 (human URAT1-F449Y; h-F449Y membranes, read-out: IC50, inhibition of 3H-verinurad binding to h-F449Y): 0.0059 µM | fold reduced potency at h-F449Y compared to wild type human URAT1, binding assay (human URAT1-F449Y; h-F449Y vs human URAT1): the same affinity
SMILES: CC(C)(Sc1ccncc1-c1ccc(C#N)c2ccccc12)C(=O)O [Verinurad, 2-((3-(4-cyanonaphthalen-1-yl)pyrindin-4-yl)thio)-2-methylpropanoic acid]
dose that significantly lowers sUA levels (healthy human volunteers): ≥ 5 mg
